Source: patent US20220168427A1 (Ranok Therapeutics (Hangzhou) Co. Ltd., priority 2019, published 2022)
pIC50: −log10 of the molar value. Structures can show the parent of a compound that is named as a salt.

Tests used:
BRD4 (BD1+BD2) = target: T1, BRD4 (BD1+BD2) (Homo sapiens, UniProt O60885); conditions: read-out: BRD4 Binding Potency
T1 construct: 1.8 μg/ml recombinant BRD4 (BD1+BD2 domains) protein
Procedure: A master mix was prepared with assay buffer, 1.8 μg/ml recombinant BRD4 (BD1+BD2 domains) protein, and 200-fold dilutions of Tb-labeled donor and dye-labeled acceptor. 40-fold dilutions of acetylated and non-acetylated ligands were prepared in 1×BRD TR-FRET assay buffer. Also, a serial 3-fold dilution of each compound was prepared ranging from 40 μM down until 2.0 nM. In a 384-well plate, 5 μl diluted ligand and 5 μl of compound dilution were added per well to duplicate wells and mixed by brief shaking. Then 10 μl of master mix was added per well, mixed by brief shaking, incubated at 25° C. for 2 hr and fluorescence was measured on an EnVision Plate Reader. The 665 nm/615 nm ratio was calculated from EnVision raw data. Data were normalized using whole-plate averages of “positive” and “negative” readings. A four-parameter “log[inhibitor] vs. response” curve was fitted using GraphPad Prism 7.0.

MV4-11 cells = assay: MV4-11 Cell Cytotoxicity Assay; assay type: cell-based, human; conditions: CCK-8; for IC50 at 72 h: human, MV4-11 cells
Text: % Inhibition=100−(D−B)/(S−B)*100%.
S: The absorbance of the maximum (cells with DMSO)
B: The absorbance of the minimum (medium with DMSO)

HSP90α = HSP90α (Homo sapiens, UniProt P07900); assay: HSP90α Binding Fluorescent Polarization (FP) Assay; conditions: competition with FITC-geldanamycin; read-out: HSP90 Binding Potency
Procedure: HSP90α Binding Fluorescent Polarization (FP) Assay
A master mix was prepared with assay buffer, BSA and FITC-geldanamycin. In a 96-well plate, a serial 3-fold dilution of each compound was prepared ranging from 40 μM down until 2.0 nM. Also in a 96-well plate, recombinant HSP90α protein was diluted to 28 μg/ml. Then, in a 384-well plate, 10 μl of master mix and 5 μl of compound dilution were added per well to duplicate wells and mixed by brief shaking. Then 5 μl of diluted HSP90α protein was added per well, mixed by brief shaking, incubated at 25° C. for 30, 60 and 120 min and fluorescence was measured on an EnVision Plate Reader. Background-subtracted mP values were calculated from EnVision raw data and a four-parameter “log[inhibitor] vs. response” curve was fitted using GraphPad Prism 7.0.

| Compound | pIC50 (BRD4 (BD1+BD2)) | IC50 at 72 h (MV4-11 cells) [nM] | pIC50 (HSP90α) | pIC50 (MV4-11 cells; 72 hr) |
| --- | --- | --- | --- | --- |
| Cc1sc2c(c1C)C(c1ccc(Cl)cc1)=N[C@@H](CC(=O)N(C)[C@H](C)c1ccc(CN3CCN(Cc4ccc(-n5c(O)nnc5-c5cc(C(C)C)c(O)cc5O)cc4)CC3)cc1)c1nnc(C)n1-2 [Compound 92, 2-((S)-4-(4-chlorophenyl)-2,3,9-trimethyl-6H-thieno[3,2-f][1,2,4]triazolo[4,3-a][1,4]diazepin-6-yl)-N—((R)-1-(4-((4-(4-(3-(2,4-dihydroxy-5-isopropylphenyl)-5-hydroxy-4H-1,2,4-triazol-4-yl)benzyl)piperazin-1-yl)methyl)phenyl)ethyl)-N-methylacetamide, trifluoroacetic acid] | < 6.00 | 100 to 1000 | < 6.00 |  |
| Cc1sc2c(c1C)C(c1ccc(Cl)cc1)=N[C@@H](CC(=O)NCC(=O)NCCOc1ccc(-n3c(S)nnc3-c3cc(C(C)C)c(O)cc3O)cc1)c1nnc(C)n1-2 [Compound 48, (S)-2-(4-(4-chlorophenyl)-2,3,9-trimethyl-6H-thieno[3,2-f][1,2,4]triazolo[4,3-a][1,4]diazepin-6-yl)-N-(2-((2-(4-(3-(2,4-dihydroxy-5-isopropylphenyl)-5-mercapto-4H-1,2,4-triazol-4-yl)phenoxy)ethyl)amino)-2-oxoethyl)acetamide] | 6.00 to 7.00 | 100 to 1000 | > 7.00 |  |
| Cc1sc2c(c1C)C(c1ccc(Cl)cc1)=N[C@@H](CCNCCOCCOc1ccc(-n3c(O)nnc3-c3cc(C(C)C)c(O)cc3O)cc1)c1nnc(C)n1-2 [Compound 63, (S)-4-(4-(4-(2-(2-((2-(4-(4-chlorophenyl)-2,3,9-trimethyl-6H-thieno[3,2-f][1,2,4]triazolo[4,3-a][1,4]diazepin-6-yl)ethyl)amino)ethoxy)ethoxy)phenyl)-5-hydroxy-4H-1,2,4-triazol-3-yl)-6-isopropylbenzene-1,3-diol, trifluoroacetic acid] | 6.00 to 7.00 | 100 to 1000 | 6.00 to 7.00 |  |
| Cc1sc2c(c1C)C(c1ccc(Cl)cc1)=N[C@@H](CC(=O)N1CCC(CN3CCN(Cc4ccc(-n5c(C(=O)NCC(F)(F)F)nnc5-c5cc(C(C)C)c(O)cc5O)cc4)CC3)CC1)c1nnc(C)n1-2 [Compound 13, 4-(4-((4-((1-(2-((6S)-4-(4-chlorophenyl)-2,3,9-trimethyl-6H-thieno[3,2-f][1,2,4]triazolo[4,3-a][1,4]diazepin-6-yl)acetyl)piperidin-4-yl)methyl)piperazin-1-yl)methyl)phenyl)-5-(2,4-dihydroxy-5-isopropylphenyl)-N-(2,2,2-trifluoroethyl)-4H-1,2,4-triazole-3-carboxamide] | 6.00 to 7.00 | < 100 | 6.00 to 7.00 |  |
| Cc1sc2c(c1C)C(c1ccc(Cl)cc1)=N[C@@H](CC(=O)N1CCC(CN3CCN(Cc4ccc(-n5c(O)nnc5-c5cc(C(C)C)c(O)cc5O)cc4)CC3)CC1)c1nnc(C)n1-2 [Compound 103, (S)-2-(4-(4-chlorophenyl)-2,3,9-trimethyl-6H-thieno[3,2-f][1,2,4]triazolo[4,3-a][1,4]diazepin-6-yl)-1-(4-((4-(4-(3-(2,4-dihydroxy-5-isopropylphenyl)-5-hydroxy-4H-1,2,4-triazol-4-yl)benzyl)piperazin-1-yl)methyl)piperidin-1-yl)ethan-1-one acetate] | 6.00 to 7.00 | < 100 | 6.00 to 7.00 |  |
| CCc1cc(-c2nnc(O)n2-c2ccc(CN3CCN(CC4CCN(C(=O)C[C@H]5N=C(c6ccc(Cl)cc6)c6c(sc(C)c6C)-n6c(C)nnc65)CC4)CC3)cc2)c(O)cc1O [Compound 27, 2-((6R)-4-(4-chlorophenyl)-2,3,9-trimethyl-6H-thieno[3,2-f][1,2,4]triazolo[4,3-a][1,4]diazepin-6-yl)-1-(4-((4-(4-(3-(5-ethyl-2,4-dihydroxyphenyl)-5-hydroxy-4H-1,2,4-triazol-4-yl)benzyl)piperazin-1-yl)methyl)piperidin-1-yl)ethanone, trifluoroacetic acid] | < 6.00 | < 100 | 6.00 to 7.00 |  |
| (S)—N-(4′-((1-((S)-(2-(4-(4-chlorophenyl)-2,3,9-trimethyl-6H-thieno[3,2-f][1,2,4]triazolo[4,3-a][1,4]diazepin-6-yl)acetyl)glycyl)piperidin-4-yl)oxy)-2′-hydroxy-[1,1′-biphenyl]-4-yl)-3′,6-dimethoxy-[1,1′-biphenyl]-3-carboxamide [Compound 133] | < 6.00 |  | < 6.00 | < 6.00 |
| CCc1cc(-c2nnc(O)n2-c2ccc(CN3CCN(CC4CCN(C(=O)C[C@@H]5N=C(c6ccc(Cl)cc6)c6c(sc(C)c6C)-n6c(C)nnc65)CC4)CC3)cc2)c(O)cc1O [Compound 1, 2-((6S)-4-(4-chlorophenyl)-2,3,9-trimethyl-6H-thieno[3,2-f][1,2,4]triazolo[4,3-a][1,4]diazepin-6-yl)-1-(4-((4-(4-(3-(5-ethyl-2,4-dihydroxyphenyl)-5-hydroxy-4H-1,2,4-triazol-4-yl)benzyl)piperazin-1-yl)methyl)piperidin-1-yl)ethanone] | 6.00 to 7.00 |  | 6.00 to 7.00 |  |
| CCc1cc(-c2nnc(C(N)=O)n2-c2ccc(CN3CCN(CC4CCN(C(=O)C[C@@H]5N=C(c6ccc(Cl)cc6)c6c(sc(C)c6C)-n6c(C)nnc65)CC4)CC3)cc2)c(O)cc1O [Compound 121, (S)-4-(4-((4-((1-(2-(4-(4-chlorophenyl)-2,3,9-trimethyl-6H-thieno[3,2-f][1,2,4]triazolo[4,3-a][1,4]diazepin-6-yl)acetyl)piperidin-4-yl)methyl)piperazin-1-yl)methyl)phenyl)-5-(5-ethyl-2,4-dihydroxyphenyl)-4H-1,2,4-triazole-3-carboxamide hydrochloride] | < 6.00 |  | > 7.00 |  |
| CCNC(=O)c1noc(-c2cc(C(C)C)c(O)cc2O)c1-c1ccc(CN2CCN(CC3CCN(C(=O)C[C@@H]4N=C(c5ccc(Cl)cc5)c5c(sc(C)c5C)-n5c(C)nnc54)CC3)CC2)cc1 [Compound 16, 4-(4-((4-((1-(2-((6S)-4-(4-chlorophenyl)-2,3,9-trimethyl-6H-thieno[3,2-f][1,2,4]triazolo[4,3-a][1,4]diazepin-6-yl)acetyl)piperidin-4-yl)methyl)piperazin-1-yl)methyl)phenyl)-5-(2,4-dihydroxy-5-isopropylphenyl)-N-ethylisoxazole-3-carboxamide, trifluoroacetic acid] | 6.00 to 7.00 |  | 6.00 to 7.00 |  |
| Cc1sc2c(c1C)C(c1ccc(Cl)cc1)=N[C@@H](CC(=O)N1CCC(CN3CCN(Cc4ccc(-n5c(O)nnc5-c5cc(C(C)C)c(O)cc5O)cc4)CC3)CC1)c1nnc(C)n1-2 [Compound 40, 2-((6S)-4-(4-chlorophenyl)-2,3,9-trimethyl-6H-thieno[3,2-f][1,2,4]triazolo[4,3-a][1,4]diazepin-6-yl)-1-(4-((4-(4-(3-(2,4-dihydroxy-5-isopropylphenyl)-5-hydroxy-4H-1,2,4-triazol-4-yl)benzyl)piperazin-1-yl)methyl)piperidin-1-yl)ethanone, trifluoroacetic acid] | 6.00 to 7.00 |  | > 7.00 |  |
| Cc1sc2c(c1C)C(c1ccc(Cl)cc1)=N[C@@H](CC(=O)NC(C)c1ccc(CN3CCC(Cc4ccc(-n5c(O)nnc5-c5cc(C(C)C)c(O)cc5O)cc4)CC3)cc1)c1nnc(C)n1-2 (stereo in doubt) [Compound 82, 2-((S)-4-(4-chlorophenyl)-2,3,9-trimethyl-6H-thieno[3,2-f][1,2,4]triazolo[4,3-a][1,4]diazepin-6-yl)-N—((R)-1-(4-((4-(4-(3-(2,4-dihydroxy-5-isopropylphenyl)-5-hydroxy-4H-1,2,4-triazol-4-yl)benzyl)piperidin-1-yl)methyl)phenyl)ethyl)acetamide hydrochloride] | > 7.00 | < 100 |  |  |
| CCc1cc(-c2nnc(C(N)=O)n2-c2ccc(CN3CCN(CC4CCN(C(=O)C[C@@H]5N=C(c6ccc(Cl)cc6)c6c(sc(C)c6C)-n6c(C)nnc65)CC4)CC3)cc2)c(O)cc1O [Compound 120, (S)-4-(4-((4-((1-(2-(4-(4-chlorophenyl)-2,3,9-trimethyl-6H-thieno[3,2-f][1,2,4]triazolo[4,3-a][1,4]diazepin-6-yl)acetyl)piperidin-4-yl)methyl)piperazin-1-yl)methyl)phenyl)-5-(5-ethyl-2,4-dihydroxyphenyl)-4H-1,2,4-triazole-3-carboxamide hydrochloride] | > 7.00 |  | 6.00 to 7.00 |  |
